Measured values reported in article PMC3390922 (The Journal of Neuroscience, 2010).
Values joined by “and” are separate entries in the source; they are usually repeats but may differ in a detail not shown here. Equal entries are not always repeated. Structures can show the parent of a compound that is named as a salt.

Assays:
[1] = tested on: DA release in striatal slices; parameters: species or system mouse
[2] = target: D2/D3 dopamine receptors; test: Saturation binding of [3H]-raclopride to membranes; parameters: species or system mouse; conditions: membranes from C57Bl/6 mice (data not shown)
[3] = target: D1/D5 dopamine receptors; test: Saturation binding of [3H]-SCH23390 to membranes; parameters: species or system mouse; conditions: membranes from C57Bl/6 mice (data not shown)
[4] = target: α6* nAChRs (αCtxMII-sensitive, α6β2*) (Mus musculus, UniProt Q9ERK7+Q9R0W9)
α6* nAChRs (αCtxMII-sensitive, α6β2*), sequence (Q9R0W9 31-494): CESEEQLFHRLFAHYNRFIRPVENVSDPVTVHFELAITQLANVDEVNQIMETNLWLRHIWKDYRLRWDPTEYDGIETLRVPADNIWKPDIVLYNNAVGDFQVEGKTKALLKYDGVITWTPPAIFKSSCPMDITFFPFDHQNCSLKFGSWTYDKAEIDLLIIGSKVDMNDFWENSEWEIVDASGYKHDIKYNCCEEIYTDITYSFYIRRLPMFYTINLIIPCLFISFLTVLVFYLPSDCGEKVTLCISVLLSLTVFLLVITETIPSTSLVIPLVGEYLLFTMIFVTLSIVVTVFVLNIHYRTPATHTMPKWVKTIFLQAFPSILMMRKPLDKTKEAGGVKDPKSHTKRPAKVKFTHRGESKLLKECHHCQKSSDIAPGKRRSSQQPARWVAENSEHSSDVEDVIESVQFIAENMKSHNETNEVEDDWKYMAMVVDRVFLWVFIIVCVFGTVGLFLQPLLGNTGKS
α6* nAChRs (αCtxMII-sensitive, α6β2*), sequence (Q9ERK7 26-501): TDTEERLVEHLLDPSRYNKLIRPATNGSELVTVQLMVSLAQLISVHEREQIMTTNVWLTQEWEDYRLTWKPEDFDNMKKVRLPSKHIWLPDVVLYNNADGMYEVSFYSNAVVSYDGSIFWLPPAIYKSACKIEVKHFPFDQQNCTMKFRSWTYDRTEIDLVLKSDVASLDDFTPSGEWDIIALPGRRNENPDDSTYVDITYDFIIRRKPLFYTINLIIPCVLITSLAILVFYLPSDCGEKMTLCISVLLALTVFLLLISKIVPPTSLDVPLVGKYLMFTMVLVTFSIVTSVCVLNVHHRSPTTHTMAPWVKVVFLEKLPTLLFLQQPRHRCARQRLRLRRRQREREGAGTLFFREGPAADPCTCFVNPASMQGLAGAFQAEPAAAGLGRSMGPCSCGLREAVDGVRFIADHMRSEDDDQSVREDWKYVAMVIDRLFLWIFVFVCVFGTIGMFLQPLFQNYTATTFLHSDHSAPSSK
α6* nAChRs (αCtxMII-sensitive, α6β2*), sequence (O70174 31-629, further chain): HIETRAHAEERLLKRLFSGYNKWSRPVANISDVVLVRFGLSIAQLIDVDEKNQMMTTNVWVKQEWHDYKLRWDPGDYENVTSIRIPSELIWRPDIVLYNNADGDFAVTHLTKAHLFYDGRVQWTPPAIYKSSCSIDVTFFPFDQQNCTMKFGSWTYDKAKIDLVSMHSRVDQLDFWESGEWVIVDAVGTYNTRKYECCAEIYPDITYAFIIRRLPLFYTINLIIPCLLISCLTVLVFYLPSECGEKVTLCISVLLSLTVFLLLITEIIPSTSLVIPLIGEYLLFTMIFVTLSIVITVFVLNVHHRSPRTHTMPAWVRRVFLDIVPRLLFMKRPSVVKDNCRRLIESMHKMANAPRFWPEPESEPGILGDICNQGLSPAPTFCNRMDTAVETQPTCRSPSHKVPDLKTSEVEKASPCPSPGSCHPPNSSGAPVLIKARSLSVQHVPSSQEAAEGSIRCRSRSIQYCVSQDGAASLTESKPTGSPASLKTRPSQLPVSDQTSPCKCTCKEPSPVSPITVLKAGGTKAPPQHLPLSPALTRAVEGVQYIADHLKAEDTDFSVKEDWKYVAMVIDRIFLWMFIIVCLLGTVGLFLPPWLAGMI
α6* nAChRs (αCtxMII-sensitive, α6β2*), sequence (Q8BMN3 31-464, further chain): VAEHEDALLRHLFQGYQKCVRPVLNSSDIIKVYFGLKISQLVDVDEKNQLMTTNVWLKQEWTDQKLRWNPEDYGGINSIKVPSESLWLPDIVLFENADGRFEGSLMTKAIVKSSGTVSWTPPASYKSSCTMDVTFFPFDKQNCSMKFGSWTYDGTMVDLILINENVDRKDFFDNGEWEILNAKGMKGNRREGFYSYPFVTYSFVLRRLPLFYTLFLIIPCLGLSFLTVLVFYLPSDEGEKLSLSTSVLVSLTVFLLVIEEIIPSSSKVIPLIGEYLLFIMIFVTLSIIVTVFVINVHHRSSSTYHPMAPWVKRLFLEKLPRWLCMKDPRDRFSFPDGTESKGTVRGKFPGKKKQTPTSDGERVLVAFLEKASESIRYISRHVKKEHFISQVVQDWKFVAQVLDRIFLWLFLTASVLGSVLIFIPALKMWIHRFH

[5] = target: α6* nAChRs (αCtxMII-sensitive) in α4KO mice (Mus musculus, UniProt Q9ERK7+Q9R0W9)
α6* nAChRs (αCtxMII-sensitive) in α4KO mice, sequence (Q9ERK7 26-501): as the sequence (Q9ERK7 26-501) above
α6* nAChRs (αCtxMII-sensitive) in α4KO mice, sequence (Q8BMN3 31-464, further chain): as the sequence (Q8BMN3 31-464, further chain) above
α6* nAChRs (αCtxMII-sensitive) in α4KO mice, sequence (Q9R0W9 31-494): as the sequence (Q9R0W9 31-494) above

[6] = target: α6* nAChRs (αCtxMII-sensitive) in α4KO/α6^L9′S mice (Mus musculus, UniProt Q9ERK7+Q9R0W9, L280S)
α6* nAChRs (αCtxMII-sensitive) in α4KO/α6^L9′S mice, sequence (Q9ERK7 26-501, stated change not applied): as the sequence (Q9ERK7 26-501) above
α6* nAChRs (αCtxMII-sensitive) in α4KO/α6^L9′S mice, sequence (Q8BMN3 31-464, further chain): as the sequence (Q8BMN3 31-464, further chain) above
α6* nAChRs (αCtxMII-sensitive) in α4KO/α6^L9′S mice, sequence (Q9R0W9 31-494 L280S): as the sequence (Q9R0W9 31-494) above, with L250S counted along it

[7] = target: (non-α6) α4β2* nAChRs (Mus musculus, UniProt O70174+Q9ERK7)
(non-α6) α4β2* nAChRs, sequence (O70174 31-629): as the sequence (O70174 31-629, further chain) above
(non-α6) α4β2* nAChRs, sequence (Q9ERK7 26-501): as the sequence (Q9ERK7 26-501) above

[8] = target: (non-α6) α4β2* nAChRs in α6^L9′S mice (Mus musculus, UniProt O70174+Q9ERK7)
(non-α6) α4β2* nAChRs in α6^L9′S mice, sequence (O70174 31-629): as the sequence (O70174 31-629, further chain) above
(non-α6) α4β2* nAChRs in α6^L9′S mice, sequence (Q9ERK7 26-501): as the sequence (Q9ERK7 26-501) above

[9] = tested on: WT, α6^L9′S, α4KO, and α4KO/α6^L9′S mice; conditions: mouse, in vivo
[10] = tested on: α6α4β2β3 nAChRs; conditions: cited from earlier work
[11] = in vivo; cited from earlier work

NC1=N[C@H](O)[C@H]2[C@H]3O[C@]4(O)O[C@@H]([C@@H](O)[C@@]2(N1)[C@@H]4O)[C@]3(O)CO [tetrodotoxin]
effect on evoked DA release responses [1]: blocked

CCN1CCC[C@H]1CNC(=O)c1c(O)c(Cl)cc(Cl)c1OC [[^3H]-raclopride]
Kd [2]: ~2 nM

CN1CCc2cc(Cl)c(O)cc2[C@@H](c2ccccc2)C1 [[^3H]-SCH23390]
Kd [3]: ~0.1 nM

CN1CCC[C@H]1c1cccnc1 [nicotine, (-)-nicotine tartrate]
Rmax [4]: 4.6 ± 0.3 units and 3.2 ± 0.3 units
Rmax [5]: 3.83 ± 0.13 units and 3.63 ± 0.15 units
Rmax [6]: 5.24 ± 0.24 units and 4.16 ± 0.06 units
Rmax [7]: 15.8 ± 0.5 units and 14.5 ± 0.5 units
Rmax [8]: 7.8 ± 0.2 units and 7.4 ± 0.4 units
potency and efficacy for locomotor activation [9]: consistently reduced
peak locomotor response ([9]; ip, 0.2 mg/kg): 93 ± 14 ambulations/min and 53 ± 4 ambulations/min
EC50 [10]: 230 nM
concentration in brain CSF [11]: 0.1 to 0.5 µM
